Laboratory results: patent US4690944A, “Homocysteine thiolactone derivatives, process for the preparation thereof and pharmaceutical compositions therefrom” (Chiesi Farmaceutici S.p.A., priority 1985, dated 1987)

Experiments:
porcine gastric mucine = test: "In vitro" mucolytic activity (viscoelasticity of porcine gastric mucine); assay type: biochemical; conditions: 0.2 ml of 10% DMSO solution of compound in 1.8 ml of 6% mucine, 25° C., 30 minutes, 0.075 Hz
Description: Control samples were similarly added with the vehicle only. After incubation at 25° C. for 30 minutes, the analysis of the rheologic characteristics was carried out by means of Contraves Low-Shear 30 sinus viscosimeter endowed with oscillating device for the study of the viscoelasticity. The dynamic measurements of the viscoelasticity were carried out at a single frequency (0.075 Hz), using an appropriate concentrical cylinder measurement system, particularly suited for bronchial mucus (Contraves MS-LS 1-1).
The rheogramm was recorded on X/Y Rikadenki 11T recorder and the […] determination was carried out by means of vectorial calculation.
The percent decreases versus control samples, reported in Table 1, were determined from the means of the values of said parameters (at least 7 replications per sample).

[1] = Toxicity after single administration (acute toxicity, oral); conditions: mouse, in vivo, mice, p.o., death-rate after 7 days, read-out: Acute toxicity LD50 approx.
Description: IVA:NMRI (SPF) mice, fasted for 18 hours before treatment with water ad libitum, have been used. The compounds, dissolved or suspended in a 0.2% Tween® 80 aqueous solution, have been administered orally, at constant concentration (10%). According to the death-rate observed after 7 days from treatment, the approximate LD50 values, reported in Table 1, have been interpolated on Probits chart.

respiratory tract = test: Mucosecretodynamic activity, "in vivo" fluorescein test; conditions: Mus musculus, po; male mice, p.o., 90 minutes before i.v. fluorescein; excretion increase versus controls
Description: The compounds, dissolved or suspended in 20 ml/kg of a 0.2% Tween® 80 aqueous suspension, were administered orally 90 minutes before the intravenous injection of 1% (5 ml/kg) fluorescein. Animals treated p.o. with the only vehicle were used as a control group. After 30 minutes from the fluorescein injection the animals were killed and subjected to incannulation of the trachea. Then the respiratory tract was washed and the spectrophotometric dosage of the fluorescein was carried out against phosphate buffer on the so collected eluate, suitably diluted with phosphate buffer and centrifugated.
The amount of fluorescein was determined by means of a calibration curve prepared in the same experimental conditions and the excretion expressed as ng/hour/10 g body weight. For each experimental session the percent increases of excretion versus controls were calculated.

SMILES | "in vitro" % decrease elasticity (G') (porcine gastric mucine) [%] | "in vitro" % decrease viscosity (.eta.) (porcine gastric mucine) [%] | LD50 at 168 h [1] [mg/kg] | ED50 (respiratory tract) [mg/kg]
O=C(O)c1ccccc1C(=O)NC1CCSC1=O (centres unmarked) [II, 2-[[N-(tetrahydro-2-oxo-3-thienyl)amino]carbonyl]benzoic acid] | 23 | 45 | > 4000 | 340
O=C1SCCC1NC(=O)C1C2C=CC(C2)C1C(=O)O (centres unmarked) [IV, 3-[[N-(Tetrahydro-2-oxo-3-thienyl)amino]-carbonyl]bicyclo[2,2,1]-ept-5-ene-2-carboxylic acid] | 32 | 43 | > 4000 | 25
CC(=O)N[C@@H](CS)C(=O)O [N-acetyl-L-cysteine, N--acetyl-L-cysteine, reference compound] | 39 | 53 | 4400 | 1300
NC(CSCC(=O)O)C(=O)O (centres unmarked) [S-carboxymethyl-cysteine, S--carboxymethyl-cysteine, reference compound] |  |  | > 4000 | 1900
